Experimental data taken from patent US5576177A, “Bioassay for reverse transcriptase inhibitors” (St. Jude Children's Research Hospital, priority 1994, dated 1996).
Where two headings read alike, the source gives them in different places.

How the values were obtained:
[1] = molecular target: HIV-1 reverse transcriptase (HIV-1 M:B_HXB2R, UniProt P04585); assay: Inhibition of HIV-1 reverse transcriptase (TTP incorporation, poly[rA]-oligo[dT]12-18 primer-template); assay type: biochemical; details: for inhibition of reverse transcriptase activity (effect on reaction kinetics): at concentrations of up to 10,000 fmols
Protocol: (§1) Reverse transcriptase assays were performed using substantially purified HIV-1 reverse transcriptase and poly[rA]-oligo[dT]12-18 as primer-template. The reactions were carried out in a total volume of 10 μl; a 4.5 μl volume of the sample was mixed with an equal volume of a reaction mixture to provide a final concentration of 50 mM Tris (pH 8.5), 6 mM MgCl2, 10 mM dithiothreitol (DTT), 2.0 μg bovine serum albumin (BSA), 0.5 μCi TTP, 80 mM KCl, and 0.05% Triton X-100. The reaction was initiated by the addition of 1.0 μl of HIV reverse transcriptase (containing~1 ng protein; from American BioTechnology,Cambridge, Mass.; Cat. No. 26001). After 1 hour incubation at 37° C., the reaction was stopped by the addition of 5.0 μof stop buffer (50 mM EDTA+3% SDS). The reverse transcriptase products (polymerization products) were separated from the unincorporated label by chromatography on Sephadex G-25 (superfine) columns. The fractions corresponding to the void volume were collected and counted by scintillation counting.

CEM cells [2] = assay: Zidovudine triphosphate level in CEM cells by HPLC-radioactive method; assay type: in vitro ADME; details: 4 hr incubation with 1 μM zidovudine, n = 1
Protocol: (§2) Preparation of cell extracts. […] The cell pellets were resuspended in 1 ml of residual media and layered onto 150 μl of nyosil oil, and spun through the oil. The media above the oil layer was removed, and any residual media was removed by rinsing the area above the oil layer by two gentle water washes. Finally, the oil was removed and the cells were extracted with 70% methanol+15 mM Tris-HCl buffer (pH 7.4) for at least 15 min on ice. The debris was removed by centrifugation and the samples stored at -20° C. until required.
(§3) One fraction was analyzed by HPLC and zidovudine metabolites were quantitated by usual radioisotopic methods.
(§4) Buffers used in the separation procedure were A--0.005M ammonium phosphate at pH 4.0+10% methanol and B--0.7M ammonium phosphate at pH 4.6+10% methanol.
(§5) Cell extracts were analyzed and quantified by using the different assays as described in Materials and Methods. Statistical parameters represent the standard deviation of the mean (δ) of three determinations of parallel samples.

CEM cells [3] = assay: Zidovudine triphosphate level in CEM cells by HPLC-RIA; assay type: in vitro ADME; details: 4 hr incubation with 1 μM zidovudine, n = 3
Protocol: as §3, §5
CEM cells were extracted in the same manner as cultured peripheral blood mononuclear cell samples (see Materials and Methods). […] The samples were cleaned up using Waters Sep-pak C-18 cartridges. The cartridges were conditioned with 10% methanol and then rinsed with water. Each sample was applied separately and eluted with 50% methanol. The samples were vacuum desiccated to a volume under 500 μl and further purified with a 250 mm Whatman ODS-3 column. Buffer A was 35% methanol and buffer B was 50% methanol. The gradient was 15 min at 0% B followed by 20 min at 100% B with a flow rate of 0.5 ml/min and fractions collected every min. The fractions containing zidovudine were pooled and vacuum desiccated to dryness. […] The antibody was diluted 1:3 and preincubated with the sample 2 hours.

CEM cells [4] = assay: Zidovudine triphosphate level in CEM cells by reverse transcriptase bioassay; assay type: in vitro ADME; details: 4 hr incubation with 1 μM zidovudine, n = 3
Protocol: as §2
Reverse transcriptase assays were performed using substantially purified HIV-1 reverse transcriptase and poly[rA]-oligo[dT]12-18 as primer-template. The reactions were carried out in a total volume of 10 μl; a 4.5 μl volume of the sample was mixed with an equal volume of a reaction mixture to provide a final concentration of 50 mM Tris (pH 8.5), 6 mM MgCl2, 10 mM dithiothreitol (DTT), 2.0 μg bovine serum albumin (BSA), 0.5 μCi TTP, 80 mM KCl, and 0.05% Triton X-100. […] The fractions corresponding to the void volume were collected and counted by scintillation counting.
as §3
Cell extracts were analyzed and quantified by using the different assays as described in Materials and Methods. […]

[5] = tested on: peripheral blood mononuclear cells; assay: Intracellular zidovudine triphosphate in peripheral blood mononuclear cells of HIV-infected volunteers (reverse transcriptase bioassay); assay type: in vivo, human
Protocol: Peripheral blood mononuclear cell isolation. Heparinized blood from normal human volunteers or asymptomatic HIV seropositive individuals was diluted 1:1 with HBSS, layered onto LSM (Ficoll hypaque) and then separated by centrifugation for 30 min at 400×g. The mononuclear cell layer was removed, washed once with growth media, counted, and pelleted by centrifugation. The cells were then resuspended in growth medium (RPMI containing 10% fetal calf serum) and the residual erythrocytes lysed by the addition of 3 volumes of cold water for 30 seconds. Erythrocyte lysis was stopped by the addition of 1 volume of 0.6M sodium chloride, and the mononuclear cells were pelleted by centrifugation.
Uncultured peripheral blood mononuclear cells from zidovudine-treated patients were resuspended in 1 ml of media and transferred to a 1.5 ml centrifuge tube, spun 1 min at 14,000 rpm, the media removed, and pulsed again to allow removal of any residual media. The cells were extracted for at least 15 min with 200 μl of ice cold 70% methanol per 1×10^7 cells. The cell debris was removed by centrifugation for 15 min at 14,000 rpm and the supernate stored in -20° C. until required for analysis. Prior to use, the extracts were dried under vacuum and resuspended in 50 μl of 5 mM Tris-HCl buffer (pH 8.5); extracts from 0.5×10^7 CEM cells or 1×10^7 cultured peripheral blood mononuclear cells were reconstituted in 200 μl buffer.
as §1
The zidovudine-free peripheral blood mononuclear cells from each individual at baseline (untreated) served as the cell background to construct the standard curve for zidovudine triphosphate determination.
(§6) Individuals in this study were HIV-infected individuals recruited from an area clinic. […] CD4 and CD8 cell counts were determined from baseline samples.

[6] = tested on: peripheral blood mononuclear cells; details: AIDS patients receiving 300 mg oral zidovudine; cited from earlier work
[7] = tested on: human immunodeficiency virus reverse transcriptase; details: cited from earlier work
[8] = tested on: peripheral blood mononuclear cells; assay: Phosphorylation of zidovudine in peripheral blood mononuclear cells in vitro; assay type: in vitro ADME, human; details: proliferating compared to resting cells; 1 μM [^3 H]zidovudine
Protocol: Culture of human peripheral blood mononuclear cells. The peripheral blood mononuclear cells were suspended in growth media and transferred to plastic tissue culture flasks. The monocyte/macrophage cells were allowed to adhere to the flask for at least 60 min after which the non-adherent cells comprises primarily of lymphocytes were transferred to a new flask. The cells were stimulated by addition of 5 μg/ml of PHA-P and 10 units/ml of IL-2 and incubated for 72 hours at 37° C. prior to use. Fresh media was added every 24 hours to maintain the IL-2 concentration. If quiescent cells were required the PHA-P and IL-2 were omitted and the cells were used the following day.
as §2, §4

[9] = Plasma zidovudine concentrations and pharmacokinetics in HIV-infected volunteers (RIA); assay type: in vivo, human; details: for concentration at 1 h: po; for AUC: read-out: AUC (area under the curve), median; for half-life: read-out: t1/2 (half life), median (converted)
Protocol: Pharmacokinetic studies in patients. To assess the utility and sensitivity of the bioassay of the invention in patients, a clinical study was performed. The study was approved by the Institutional Review Board of St. Jude Children's Research Hospital and informed consent was obtained from each individual according to institutional procedures.
as §6
Prior distributions for the parameters were assumed to be log normally distributed with known but independent variances (i.e., no parameter covariance) and were taken from previous studies in similar patients (Flether et al., Pharmacotherapy 12:429-434 (1992)).
Plasma samples were heat inactivated at 56° C. for 4 hours prior to assay. The samples were diluted to obtain values within a standard curve range of 10-200 ng/ml with 200 μl of sample. […] Five-hundred μl of a secondary antibody precipitating complex was added and incubated for 20 min at room temperature. The resultant mixtures were centrifuged, the supernate decanted, and the precipitate counted using an LKB gamma counter connected to an IBM PC computer with an RIA Calif. LC software program.

[10] = 10 to 500 fmol, no cell extract
[11] = spiked with extract of peripheral blood mononuclear cells (about 10^6 cells)
[12] = human, plasma, 100 mg single oral dose
[13] = human, plasma, 500 mg single oral dose

## Cc1cn([C@H]2C[C@H](N=[N+]=[N-])[C@@H](COP(=O)(O)O)O2)c(=O)[nH]c1=O [zidovudine-MP]
[1]
  inhibition of reverse transcriptase activity (effect on reaction kinetics): did not affect the reaction kinetics

## Cc1cn([C@H]2C[C@H](N=[N+]=[N-])[C@@H](CO[P@](=O)(O)O[P@](=O)(O)OP(=O)(O)O)O2)c(=O)[nH]c1=O [zidovudine triphosphate]
[1]; [10]
  coefficient of regression of linear inhibition kinetics: 0.99
  inhibition kinetics of HIV reverse transcriptase: linear inhibition kinetics
[1]; [11]
  R of linear inhibition kinetics: > 0.98
  inhibition kinetics of HIV reverse transcriptase: good linear kinetics
CEM cells [2]
  Zidovudine Triphosphate: 1.42 pmol/10^6 cells
CEM cells [3]
  Zidovudine Triphosphate: 1.50 ± 0.65 pmol/10^6 cells
CEM cells [4]
  Zidovudine Triphosphate: 1.39 ± 0.17 pmol/10^6 cells
[5]; 500 mg vs 100 mg
  proportion of median plateau values: 1.7
[5]; 1 to 6 hours after zidovudine
  time course of zidovudine triphosphate values: increased from 1 to 2 hours (Table 3 (below)) and then remained at a plateau value through 6 hours
[5]; 100 or 500 mg zidovudine
  measurability of zidovudine triphosphate after zidovudine administration: could be measured in all 12 volunteers
[5]; 1 h
  Median Ratio (500/100): 8.4
[5]; 2 h
  Median Ratio (500/100): 1.6
[5]; 4 h
  Median Ratio (500/100): 1.5
[5]; 6 h
  Median Ratio (500/100): 2.1
[5]; after 100 or 500 mg zidovudine
  % CV range of intracellular zidovudine triphosphate: 52-157%
[6]
  zidovudine triphosphate level relative to the patent's results: 10 -fold higher
[7]
  inhibition of HIV reverse transcriptase: potent inhibitor
  reverse transcriptase chain termination: causes reverse transcriptase chain termination

## Cc1cn([C@H]2C[C@H](N=[N+]=[N-])[C@@H](CO)O2)c(=O)[nH]c1=O [zidovudine, 3'-azido-3'-deoxythymidine]
[8]
  phosphorylation rate of zidovudine: high phosphorylation rate
[9]; 100 mg single oral dose, 6 h, #ND = plasma zidovudine concentration below standard curve in 4 of 5 patients
  Plasma Zidovudine: ND#
[9]; 100 mg vs 500 mg, p>0.2 by Mann-Whitney U test
  difference of CLo between dose groups: not significantly different
[9]; human, plasma, 100 mg dose
  concentration at 1 h: 1790 nM
[9]; human, plasma, 500 mg dose
  concentration at 1 h: 6300 nM
[9]; [12]
  concentration at 2 h: 760 nM
  concentration at 4 h: 260 nM
  AUC: 1200 ng·h/mL
  half-life: 1.29 h
[9]; [13]
  concentration at 2 h: 3000 nM
  concentration at 4 h: 900 nM
  AUC: 4200 ng·h/mL
  half-life: 1.07 h
[9]; human, plasma, 500 mg single oral dose, 6 h
  concentration at 6 h: 360 nM

## Cc1cn([C@H]2C[C@H](O)[C@@H](COP(=O)(O)O)O2)c(=O)[nH]c1=O [thymidine monophosphate (TMP), thymidine monophosphate]
[1]
  inhibition of reverse transcriptase activity (effect on reaction kinetics): did not affect the reaction kinetics
